Experimental data reported in PMC7830597, “Derivatives of Tenuazonic Acid as Potential New Multi-Target Anti-Alzheimer’s Disease Agents” (Biomolecules, 2021).
Marks after values point to notes of the source that are not given here.

Columns and labels:
[1] = Radical scavenging activity, DPPH method; settings: DPPH assay; mean ± SEM of 3 independent experiments
Description: Therefore, they were assayed for radical scavenging activity using the DPPH method.
The final volume of the assay was 3.5 mL, corrected with MeOH to obtain different concentrations of our compound in each assay. The control solution was composed of MeOH and DPPH [14]. After 30 min, at RT, protected from light, the absorbance was measured at 517 nm (Perkin Elmer Lambda 35 spectrophotometer equipped with a temperature programmer PTP 1þ1 Peltier System, using thermostated (T¼25.0 ± 0.1 °C) 1 cm path length cells), against a blank solution (MeOH). The assays were performed in triplicate, in which the EC50 was obtained through the graphical representation of the %AA vs. the inhibitor concentration.

[2] = Metal complexation, Fe(III)/L system; assay type: physicochemical; settings: for log β(FemHhLl): spectrophotometric, 15% w/w DMSO/water
Description: (§1) The chelating ability of compound 1 towards Fe(III), Cu(II) and Zn(II) was evaluated through the determination of the global formation constants of the complexes via pH-potentiometric and spectrophotometric titrations of the respective 1:1, 1:2 and 1:3 M/L systems in 15% w/w DMSO/water. The fitting analysis of the respective pH-potentiometric curves was done via Hyperquad 2008 [36] while that of the spectrophotometric absorption spectra was performed using Psequad, and the found equilibrium models are presented in Table 2. Compound 1 was chosen because of its better profile after preliminary assays (i.e., good AChE inhibition and antioxidant activity, as well as good ability to inhibit Cu^2+-induced Aβ aggregation).
(§2) To the best of our knowledge, the determination of stability formation constants of the complexes with TA has not yet been done and so the herein calculated values for compound 1 cannot be compared with those from the literature. The metal complexation equilibrium models of compound 1 were determined by the following process: for the Fe/L and Cu/L systems, only spectrophotometric data was used due to the better quality of the experimental results obtained [the 1:1 titration (e.g., Figure 7)] allowed the determination of the stability constant corresponding to the ML species and then this value, as well as the respective spectra, was introduced in the fitting of Fe/L 1:3 or Cu/L 1:2 data]; for the Zn/L system, potentiometric data was used. For the found metal complex models contained in Table 2, MH-2L, MH-1L2 and MH-2L2 correspond to mixed ligand-hydroxo metal complexes.
(§3) Titrations of the selected compound 1, alone or in the presence of the metal ions, were accomplished in a 15% w/w DMSO/H2O medium, at T = 25.0 ± 0.1 °C and ionic strength (I) 0.1 M KCl, by using 0.1 M KOH as titrant. Both glass and Ag/AgCl reference electrodes were previously conditioned in different DMSO/H2O mixtures of increasing DMSO % composition and the response of the glass electrode was evaluated by strong acid–strong base (HCl/KOH) calibrations with the determination of the Nernst parameters by Gran’s method. […] The spectrophotometric measurements were carried out in a 250–320 nm wavelength range at pH ca 2.5-8.0. Under the stated experimental conditions, the pKw value (13.6) was determined and subsequently used in the computations. The stepwise protonation constants of the ligands, Ki = [HiL]/[Hi-1L][H], and the overall metal–complex stability constants, β (MmHhL1) = [MmHhLl]/[M]^m[H]^h[L]^l, were calculated by fitting the pH-potentiometric and spectrophotometric data with, respectively, Hyperquad 2008 [36] and Psequad programs. The metal hydrolysis model was determined under the defined experimental conditions (I = 0.1 M KCl, 15% w/w DMSO/H2O, T = 25.0 ± 0.1 °C) and the following values of stability constants were included in the fitting of the experimental data towards the equilibrium models related to the Fe(III)/L, Cu(II)/L and Zn(II)/L systems: log β (FeH-1) = −1.79, log β (FeH-2) = −4.9, log β (FeH-4) = −20.0; log β (Cu2H-2) = −9.5; log β (ZnH-1) = −8.6, log β (ZnH-3) = −27.2, log β (Zn2H-1) = −8.6. The species distribution curves were obtained with the Hyss program.

Solubility in water = assay type: physicochemical
[3] = Metal complexation, Cu(II)/L system; assay type: physicochemical; settings: for log β(CumHhLl): spectrophotometric, 15% w/w DMSO/water
Description: as §1, §2, §3

[4] = Metal complexation, Zn(II)/L system; assay type: physicochemical; settings: for log β(ZnmHhLl): potentiometric, 15% w/w DMSO/water
Description: as §1
as §2, with “For the found metal complex models contained in Table 2, MH-2L, MH-1L2 and MH-2L2 correspond to mixed ligand-hydroxo metal complexes.” left out
Titrations of the selected compound 1, alone or in the presence of the metal ions, were accomplished in a 15% w/w DMSO/H2O medium, at T = 25.0 ± 0.1 °C and ionic strength (I) 0.1 M KCl, by using 0.1 M KOH as titrant. Both glass and Ag/AgCl reference electrodes were previously conditioned in different DMSO/H2O mixtures of increasing DMSO % composition and the response of the glass electrode was evaluated by strong acid–strong base (HCl/KOH) calibrations with the determination of the Nernst parameters by Gran’s method. […]

[5] = pH 7.4, CL/CM = 10, CM = 10^−6 M

Structure (SMILES)	Antioxidant Activity EC50 [1]	pFe (pM = −log[M]) [2, 5]	log β(FemHhLl) ([2]; species (1-22))	log β(FemHhLl) ([2]; species (101))	log β(FemHhLl) ([2]; species (102))	log β(FemHhLl) ([2]; species (103))	solubility in water (Solubility in water)	Kd ([3]; calculated at pH 7.4, read-out: conditional dissociation constant (K’d) for the copper complex) [µM]	pCu (pM = −log[M]) [3, 5]	log β(CumHhLl) ([3]; species (1-12))	log β(CumHhLl) ([3]; species (1-21))	log β(CumHhLl) ([3]; species (101))	pZn (pM = −log[M]) [4, 5]	log β(ZnmHhLl) ([4]; species (1-21))	log β(ZnmHhLl) ([4]; species (101))
CCOC(=O)C1=C(O)C(Cc2ccccc2)NC1=O (stereo not shown) [Compound 2, Ethyl 5-benzyl-4-hydroxy-2-oxo-2,5-dihydro-1H-pyrrole-3-carboxylate]	6.3 ± 0.1 µmol/µmol of DPPH	–	–	–	–	–	–	–	–	–	–	–	–	–	–
CCOC(=O)C1=C(O)C(C(C)C)NC1=O (stereo not shown) [Compound 1, Ethyl 4-hydroxy-5-isopropyl-2-oxo-2,5-dihydro-1H-pyrrole-3-carboxylate]	10.8 ± 0.2 µmol/µmol of DPPH	16.6	5.83(8) ^d	9.46(7) ^d	14.30(7) ^d	19.4(1) ^d	insoluble in water	83	11.6	6.56(6) ^d	−4.15(7) ^d	4.08(8) ^d	6.0	−11.75(5) ^c	3.16(8) ^c
